What was measured:
[1] = pH and solubilizer effect on solubility; assay type: physicochemical; conditions: potassium salt; for solubility at 24 h: 25 °C, thermodynamic from solid
Description: Solubility of compound 2 (potassium salt) was evaluated at various pH levels.

OATP1B1 = molecular target: T1, OATP1B1 (Homo sapiens, UniProt Q9Y6L6); assay: In vitro transporter inhibition, OATP1B1; assay type: in vitro ADME
T1 sequence (Q9Y6L6 1-691): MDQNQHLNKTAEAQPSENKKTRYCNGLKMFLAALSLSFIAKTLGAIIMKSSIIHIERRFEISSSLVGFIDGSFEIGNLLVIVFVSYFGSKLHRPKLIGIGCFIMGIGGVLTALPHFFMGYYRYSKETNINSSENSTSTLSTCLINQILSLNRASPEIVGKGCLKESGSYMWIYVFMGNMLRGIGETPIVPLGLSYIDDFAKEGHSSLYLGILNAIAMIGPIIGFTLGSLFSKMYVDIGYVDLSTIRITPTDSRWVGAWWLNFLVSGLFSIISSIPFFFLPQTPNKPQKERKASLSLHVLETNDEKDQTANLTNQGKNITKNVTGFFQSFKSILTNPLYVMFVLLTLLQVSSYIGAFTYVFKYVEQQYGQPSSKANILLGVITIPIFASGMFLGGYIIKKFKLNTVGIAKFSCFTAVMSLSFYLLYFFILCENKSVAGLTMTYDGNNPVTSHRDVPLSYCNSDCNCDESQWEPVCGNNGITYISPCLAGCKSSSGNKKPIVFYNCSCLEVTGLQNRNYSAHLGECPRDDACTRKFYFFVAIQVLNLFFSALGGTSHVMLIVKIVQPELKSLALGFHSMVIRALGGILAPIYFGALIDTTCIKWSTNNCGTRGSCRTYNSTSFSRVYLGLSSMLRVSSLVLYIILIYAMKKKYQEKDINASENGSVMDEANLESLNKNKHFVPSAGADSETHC

OATP1B3 = molecular target: T2, OATP1B3 (Homo sapiens, UniProt Q9NPD5); assay: In vitro transporter inhibition, OATP1B3; assay type: in vitro ADME
T2 sequence (Q9NPD5 1-702): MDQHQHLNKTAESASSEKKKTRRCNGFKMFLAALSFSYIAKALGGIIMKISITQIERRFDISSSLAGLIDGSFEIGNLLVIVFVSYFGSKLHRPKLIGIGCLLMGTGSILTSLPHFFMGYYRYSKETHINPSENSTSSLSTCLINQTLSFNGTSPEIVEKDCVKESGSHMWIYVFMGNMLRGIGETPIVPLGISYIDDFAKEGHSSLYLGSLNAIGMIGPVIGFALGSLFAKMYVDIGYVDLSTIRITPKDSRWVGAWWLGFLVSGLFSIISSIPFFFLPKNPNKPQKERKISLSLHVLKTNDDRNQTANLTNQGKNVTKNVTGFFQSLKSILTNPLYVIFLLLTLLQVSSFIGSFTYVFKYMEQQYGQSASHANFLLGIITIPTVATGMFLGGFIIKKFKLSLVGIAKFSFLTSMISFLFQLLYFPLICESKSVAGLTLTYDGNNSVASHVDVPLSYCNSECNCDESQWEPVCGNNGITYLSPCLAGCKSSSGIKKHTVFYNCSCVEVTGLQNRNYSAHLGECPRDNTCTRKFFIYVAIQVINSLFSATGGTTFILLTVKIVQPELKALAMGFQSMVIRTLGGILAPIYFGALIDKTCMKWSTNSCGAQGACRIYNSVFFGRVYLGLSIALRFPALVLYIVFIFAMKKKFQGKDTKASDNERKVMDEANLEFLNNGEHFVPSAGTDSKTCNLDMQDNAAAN

SMILES: N#Cc1nn(-c2cc(Cl)c(Oc3n[nH]c(=O)c4ccccc34)c(Cl)c2)c(=O)[nH]c1=O [Compound 2, 2-(3,5-dichloro-4-((4-oxo-3,4-dihydrophthalazin-1-yl)oxy)phenyl)-3,5-dioxo-2,3,4,5-tetrahydro-1,2,4-triazine-6-carbonitrile]
- solubility at 24 h ([1]; 0.1N HCl with 2 wt % SLS, aqueous with cosolvent or surfactant or cyclodextrin, 0.1N HCl, with 2 wt % SLS): 5.7 µg/mL
- solubility at 24 h ([1]; 0.1N HCl, simulated gastric fluid, without 2 wt % SLS): < 0.03 µg/mL
- solubility at 24 h ([1]; pH 2.0 buffer with 2 wt % SLS, pH 2, aqueous with cosolvent or surfactant or cyclodextrin, pH 2.0 buffer, with 2 wt % SLS): 5.5 µg/mL
- solubility at 24 h ([1]; pH 2.0 buffer, pH 2, aqueous buffer, without 2 wt % SLS): < 0.07 µg/mL
- solubility at 24 h ([1]; pH 4.0 buffer with 2 wt % SLS, pH 4, aqueous with cosolvent or surfactant or cyclodextrin, pH 4.0 buffer, with 2 wt % SLS): 10 µg/mL
- solubility at 24 h ([1]; pH 4.0 buffer, pH 4, aqueous buffer, without 2 wt % SLS): < 0.07 µg/mL
- solubility at 24 h ([1]; pH 6.0 buffer with 2 wt % SLS, pH 6, aqueous with cosolvent or surfactant or cyclodextrin, pH 6.0 buffer, with 2 wt % SLS): 42.3 µg/mL
- solubility at 24 h ([1]; pH 6.0 buffer, pH 6, aqueous buffer, without 2 wt % SLS): 2.2 µg/mL
- solubility at 24 h ([1]; pH 8.0 buffer with 2 wt % SLS, pH 8, aqueous with cosolvent or surfactant or cyclodextrin, pH 8.0 buffer, with 2 wt % SLS): 302 µg/mL
- solubility at 24 h ([1]; pH 8.0 buffer, pH 8, aqueous buffer, without 2 wt % SLS): 10.8 µg/mL
- solubility at 24 h ([1]; pH 10.0 buffer with 2 wt % SLS, pH 10, aqueous with cosolvent or surfactant or cyclodextrin, pH 10.0 buffer, with 2 wt % SLS): 308 µg/mL
- solubility at 24 h ([1]; pH 10.0 buffer, pH 10, aqueous buffer, without 2 wt % SLS): 10.2 µg/mL
- Solubility ([1]; pH 10.0 buffer, 24 h, with 2 wt % SLS, 25° C.): 308.2 µg/mL
- IC50 (OATP1B1): 2010 nM
- IC50 (OATP1B3): 710 nM

— patent US20230241071A1, “COMBINATION TREATMENT OF LIVER DISORDERS” (Terns Pharmaceuticals, Inc., priority 2021, published 2023)
